Laboratory results as given in article PMC7520498, “Chemical Constituents from the Whole Plant of Cuscuta reflexa” (Natural Products and Bioprospecting, 2020).
Values after ≈ are worked out from the molar mass of the structure shown. Blank lines part the entries; values can stand above or below the compound they belong to.

Legend:
[1] = test system: rabbit platelet aggregation induced by collagen; test: Rabbit platelet aggregation induced by collagen; format: cell-based; details: collagen 4 μg/mL; for IC50: Oryctolagus cuniculus, Platelet, read-out: IC50 against rabbit platelet aggregation induced by collagen
Method: (§1) Compounds 1–15 and 1a were also evaluated for their inhibitory activity against rabbit platelet aggregation induced by thrombin (1 U/mL), platelet-activating factor (PAF, 0.4 μg/mL), arachidonate (AA, 0.5 mM), or collagen (4 μg/mL).
(§2) The inhibitory effects of the compounds against rabbit platelet aggregation induced by thrombin (1 U/mL), PAF (0.4 μg/mL), AA (0.5 mM), or collagen (4 μg/mL) were evaluated according to published methods.

[2] = test system: rabbit platelet aggregation induced by arachidonate (AA); test: Rabbit platelet aggregation induced by arachidonate (AA); format: cell-based; details: Oryctolagus cuniculus, AA 0.5 mM
Method: as §1, §2

[3] = molecular target: T1, porcine pancreatic lipase (PPL) (Sus scrofa, UniProt P00591); test: In vitro porcine pancreatic lipase inhibition assay (p-NPB substrate); format: biochemical
T1 sequence (P00591 1-450): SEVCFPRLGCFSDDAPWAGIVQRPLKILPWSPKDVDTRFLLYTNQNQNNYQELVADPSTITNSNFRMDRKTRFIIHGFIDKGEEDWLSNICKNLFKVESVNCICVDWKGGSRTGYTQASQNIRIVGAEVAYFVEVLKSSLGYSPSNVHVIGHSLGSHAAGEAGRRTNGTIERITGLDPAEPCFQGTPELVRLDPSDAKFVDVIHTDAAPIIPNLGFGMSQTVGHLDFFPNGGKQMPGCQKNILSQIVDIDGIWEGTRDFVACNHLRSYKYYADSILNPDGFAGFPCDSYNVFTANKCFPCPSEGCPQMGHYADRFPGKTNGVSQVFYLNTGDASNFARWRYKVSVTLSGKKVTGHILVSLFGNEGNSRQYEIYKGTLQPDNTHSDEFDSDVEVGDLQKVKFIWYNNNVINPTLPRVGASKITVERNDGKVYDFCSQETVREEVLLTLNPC
Method: For lipase inhibition tests of each compound, porcine pancreatic lipase was used. p-Nitrophenyl butyrate (p-NPB) was used as the substrate. First, 5 μL of the lipase solution (40 U/mL) in Tris–HCl buffer (100 mM Tris–HCl, 5 mM CaCl2; pH 7.0) was added to a 96-well microtiter plate. Each compound in 1 μL of DMSO and 184 μL of Tris–HCl buffer were added and mixed with the enzyme buffer to start the reaction. After incubation at 37 °C for 15 min, 10 μL of the substrate solution (10 mM p-NPB in dimethyl formamide) was added. The enzymatic reaction was carried out for 15 min at 37 °C. The hydrolysis of p-NPB to p-nitrophenol was monitored at 400 nm using a spectrophotometer.

Compound: 7-oxo-β-sitosterol 3-O-β-D-glucopyranoside [Compound 4]
PPL inhibition ([3]; at a concentration of 100 μg/mL): 12 ± 2%

Compound: scrophenoside B [Compound 8]
IC50 against rabbit platelet aggregation induced by collagen [1]: 180.5 ± 6.7 µg/mL

Compound: CC(=O)Oc1ccccc1C(=O)O [aspirin, reference compound]
IC50 [1]: 33.3 ± 1.3 µg/mL (≈ 185 µM)
inhibition at 40 µg/mL ([2]; at 40 μg/mL): 88.1 ± 1.1%

Compound: CCC(CCC(C)C1CCC2C3C(OC)C=C4CC(OC5OC(CO)C(O)C(O)C5O)CCC4(C)C3CCC12C)C(C)C (stereo not drawn) [Compound 3, 7β-methoxy-β-sitosterol 3-O-β-glucopyranoside]
IC50 ([3]; porcine pancreatic lipase, p-NPB substrate, read-out: PPL inhibitory activity IC50 (converted)): 111 µM

Other lines, results leading:

IC50 [1]: 63.8 ± 4.4 µg/mL (≈ 106 µM)
IC50 ([2]; read-out: IC50 against rabbit platelet aggregation induced by AA): 72.6 ± 10.5 µg/mL (≈ 120 µM)
Compound: CC(=O)Oc1ccc(/C=C/C(=O)OC[C@H]2O[C@@H](Oc3cc(C)oc(=O)c3)[C@H](OC(C)=O)[C@@H](OC(C)=O)[C@@H]2OC(C)=O)cc1 [Compound 1a]

IC50 [1]: 291 ± 47.9 µg/mL (≈ 671 µM)
Compound: Cc1cc(OC2OC(COC(=O)C=Cc3ccc(O)cc3)C(O)C(O)C2O)cc(=O)o1 (centres unmarked) [Compound 1, cuscutaroside A]
